# How the values were obtained:
# Acute Toxicity = conditions: mouse, in vivo; ddY male mice
# Description: Acute toxicity of the compounds of the present invention was determined according to the method given below, and the results are shown in Table 15. […] It is known from the results that the acute toxicity of the compounds of the present invention is satisfactorily low.
# Using ddY male mice, acute toxicity of the compounds of the present invention was examined according to the method proposed by K. Takagi et al. (K. Takagi and H. Ozawa, "Experimental Techniques in Pharmacology," p200-206 (1960), NANZANDO CO., LTD.).
# Acute toxicity test of the compounds of the present invention was effected according to the method as mentioned hereinbefore.
# [1] = system: male spontaneously hypertensive rats (SHR); experiment: Reduction of Blood Pressure (systolic, tail plethysmographic method, oral); type: in vivo, rat (SHR, Wister Kyoto)
# Description: Male spontaneously hypertensive rats (SHR, Wister Kyoto) weighing 300 to 350 g were used. Systolic blood pressure was measured indirectly by the tail plethysmographic method in conscious SHR, just prior to, and 1, 2, 4 and 6 hours after oral administration of test drugs. Test drugs, dissolved in deionized water, were administered orally in a volume of 10 ml-solution/kg-rat. Reduction in systolic blood pressure (ΔP, mmHg) was calculated by substracting a systolic blood pressure after administration from that just prior to administration.
# Effect of the compounds of the present invention on reduction of blood pressure was examined according to the method as mentioned hereinbefore.
# femoral artery = experiment: Blood Flow Volume Increase of Femoral Artery; type: in vivo, Mongrel dogs; conditions: intravenous, anesthetized dogs
# Description: (§1) A plethysmographic probe (manufactured and sold by NIHON KODEN CO., LTD.) was mounted on the femoral and vertebral arteries, and blood flow volume was measured by means of a electromagnetic blood flowmeter (type:MF-27, manufactured and sold by NIHON KODEN CO., LTD.). Under these conditions, compounds of the present invention were intravenously administered through a polyethylene tube inserted to a femoral veinlet, and change in blood flow volume was measured by means of the electromagnetic blood flowmeter.
# (§2) Effect of the compounds of the present invention on dilation of femoral and vertebral arteries was examined according to the method as mentioned hereinbefore.
# [2] = system: mesenteric artery of a rabbit; experiment: Relaxation of Mesenteric Artery (KCl-contracted spiral strip); design: species or system rabbit of Japanese local variety; conditions: Oryctolagus cuniculus; concentration of the hydrochloride attaining 50% of complete relaxation; rabbit mesenteric artery contracted with KCl; read-out: ED50 (the source's name)
# Description: A rabbit of Japanese local variety weighing about 3 kg was subjected to blood-letting to death. Then, abdomen of the rabbit was dissected to pick up a mesenteric artery. […] Thus, the shrinkage and relaxation of the artery was ready to be measured as a load on the transducer. To the organ bath, KCl was added in an amount which makes the artery shrink at a half length that in 15 to 20 mM aqueous solution. Then, hydrochlorides of the compounds of the present invention were added to the organ bath to observe relaxation effect on the artery.
# Effect of the compounds of the present invention on relaxation of mesenteric artery was examined according to the method as mentioned hereinbefore.
# vertebral artery = experiment: Blood Flow Volume Increase of Vertebral Artery; type: in vivo, Mongrel dogs; conditions: intravenous, anesthetized dogs
# Description: as §1, §2
Structure (SMILES),ΔPmax (maximally reduced blood pressure) ([1]; 100 mg/kg) [mmHg],EC50 [2] [µM],also measured
"N=C(N)NCCNS(=O)(=O)c1cccc2cnccc12 [compound 4, reference compound]",–,–,LD50 (Acute Toxicity): 48 mg/kg
"O=S(=O)(c1cccc2cnccc12)N1CCNCC(Cc2ccccc2)C1 (centres unmarked) [Compound (18), 1-(5-isoquinolinesulfonyl)-6-benzylhomopiperazine]",43,10,LD50 (Acute Toxicity): 197 mg/kg; Increase in femoral artery blood flow (femoral artery; 0.3 mg/kg): 45%; Increase in vertebral artery blood flow (vertebral artery; 0.3 mg/kg): 110%
"CCCCC(CNC(=N)N)NS(=O)(=O)c1cccc2c(Cl)nccc12 (centres unmarked) [Compound (34), N-(1-guanidinomethylpentyl)-1-chloro-5-isoquinolinesulfonamide]",45,8,–
"CC1CN(S(=O)(=O)c2cccc3c(Cl)nccc23)C(C)CN1C(=N)N (centres unmarked) [Compound (46), 1-(1-chloro-5-isoquinolinesulfonyl)-4-amidino-2,5-dimethylpiperazine]",41,5,–
"N=C(N)NCCCCNS(=O)(=O)c1cccc2c(Cl)nccc12 [Compound (32), N-(4-guanidinobutyl)-1-chloro-5-isoquinolinesulfonamide]",38,4,–
"CC1CN(S(=O)(=O)c2cccc3c(Cl)nccc23)CCN1 (centres unmarked) [Compound (38), 1-(1-chloro-5-isoquinolinesulfonyl)-3-methylpiperazine]",45,17,–
"CC1CN(S(=O)(=O)c2cccc3c(O)nccc23)C(C)CN1C(=N)N (centres unmarked) [Compound (69), 1-(1-hydroxy-5-isoquinolinesulfonyl)-4-amidino-2,5-dimethylpiperazine]",51,8,–
"NCCNS(=O)(=O)c1cccc2c(O)nccc12 [Compound (47), N-(2-aminoethyl)-1-hydroxy-5-isoquinolinesulfonamide]",–,10,ΔPmax (maximally reduced blood pressure) ([1]; 50 mg/kg): 43 mmHg
"CN(CCNS(=O)(=O)c1cccc2c(O)nccc12)C1CCCCC1 [Compound (53), N-[2-(N-cyclohexyl-N-methylamino)ethyl]-1-hydroxy-5-isoquinolinesulfonamide]",–,17,ΔPmax (maximally reduced blood pressure) ([1]; 50 mg/kg): 56 mmHg
"CC(C)C(CNS(=O)(=O)c1cccc2c(Cl)nccc12)NC(=N)N (centres unmarked) [Compound (35), N-(2-guanidino-3-methylbutyl)-1-chloro-5-isoquinolinesulfonamide]",33,8,–
"CC1CN(C(=N)N)CCN1S(=O)(=O)c1cccc2c(Cl)nccc12 (centres unmarked) [Compound (45), 1-(1-chloro-5-isoquinolinesulfonyl)-4-amidino-2-methylpiperazine]",37,3,–
"O=S(=O)(c1cccc2c(Cl)nccc12)N1CCCNCC1 [Compound (76), 1-(1-chloro-5-isoquinolinesulfonyl)homopiperazine]",60,2,–
"CC(C)(CCNS(=O)(=O)c1cccc2c(O)nccc12)NC(=N)N [Compound (60), N-(3-guanidino-3-methylbutyl)-1-hydroxy-5-isoquinolinesulfonamide]",61,23,–
"CC1CN(S(=O)(=O)c2cccc3cnccc23)CCCN1 (centres unmarked) [(3), 1-(5-isoquinolinesulfonyl)-3-methylhomopiperazine]",65,1.6,LD50 (Acute Toxicity): 120 mg/kg; Increase in femoral artery blood flow (femoral artery; 0.3 mg/kg): 35%; Increase in vertebral artery blood flow (vertebral artery; 0.3 mg/kg): 78%
"CCCCN(CCCC)CCCNS(=O)(=O)c1cccc2c(O)nccc12 [Compound (52), N-(3-di-n-butylaminopropyl)-1-hydroxy-5-isoquinolinesulfonamide]",–,21,ΔPmax (maximally reduced blood pressure) ([1]; 50 mg/kg): 65 mmHg
"N=C(N)NCCNS(=O)(=O)c1cccc2c(O)nccc12 [Compound (54), N-(2-guanidinoethyl)-1-hydroxy-5-isoquinolinesulfonamide]",40,18,LD50 (Acute Toxicity): 135 mg/kg
"CC(C)C(CNS(=O)(=O)c1cccc2c(O)nccc12)NC(=N)N (centres unmarked) [Compound (58), N-(2-guanidino-3-methylbutyl)-1-hydroxy-5-isoquinolinesulfonamide]",41,15,–
"N=C(N)NCCNS(=O)(=O)c1cccc2c(Cl)nccc12 [Compound (31), N-(2-guanidinoethyl)-1-chloro-5-isoquinolinesulfonamide]",40,2,LD50 (Acute Toxicity): 160 mg/kg
"N=C(N)N1CCN(S(=O)(=O)c2cccc3c(Cl)nccc23)CC1 [Compound (43), 1-(1-chloro-5-isoquinolinesulfonyl)-4-amidinopiperazine]",32,2,–
"CC1CN(S(=O)(=O)c2cccc3c(O)nccc23)C(C)CN1 (centres unmarked) [Compound (64), 1-(1-hydroxy-5-isoquinolinesulfonyl)-2,5-dimethylpiperazine]",65,21,–
"CC(C)CC1CN(S(=O)(=O)c2cccc3c(Cl)nccc23)CCN1 (centres unmarked) [Compound (40), 1-(1-chloro-5-isoquinolinesulfonyl)-3-isobutylpiperazine]",51,13,–
"CC(C)C(N)CNS(=O)(=O)c1cccc2c(O)nccc12 (centres unmarked) [Compound (51), N-(2-amino-3-methylbutyl)-1-hydroxy-5-isoquinolinesulfonamide]",–,20,ΔPmax (maximally reduced blood pressure) ([1]; 50 mg/kg): 71 mmHg
"CN1CCN(S(=O)(=O)c2cccc3c(Cl)nccc23)CC1 [Compound (42), 1-(1-chloro-5-isoquinolinesulfonyl)-4-methylpiperazine]",56,21,–
"O=S(=O)(c1cccc2cnccc12)N1CCNCC1 [compound 2, reference compound]",11,–,LD50 (Acute Toxicity): 29 mg/kg; Increase in femoral artery blood flow (femoral artery; 0.3 mg/kg): 20%; Increase in femoral artery blood flow (femoral artery; 1 mg/kg): 69%; Increase in vertebral artery blood flow (vertebral artery; 0.3 mg/kg): 36%; Increase in vertebral artery blood flow (vertebral artery; 1 mg/kg): 98%
"CCCCCCNCCNS(=O)(=O)c1cccc2c(O)nccc12 [Compound (81), N-(2-hexylaminoethyl)-1-hydroxy-5-isoquinolinesulfonamide]",54,6,–
"CN(CCNS(=O)(=O)c1cccc2c(Cl)nccc12)C1CCCCC1 [Compound (30), N-[2-(N-cyclohexyl-N-methylamino)ethyl]-1-chloro-5-isoquinolinesulfonamide]",–,13,ΔPmax (maximally reduced blood pressure) ([1]; 50 mg/kg): 54 mmHg
"CC(CCNS(=O)(=O)c1cccc2c(Cl)nccc12)CNC(=N)N (centres unmarked) [Compound (37), N-(4-guanidino-3-methylbutyl)-1-chloro-5-isoquinolinesulfonamide]",31,11,–
"N=C(N)N1CCCN(S(=O)(=O)c2cccc3c(O)nccc23)CC1 [Compound (67), 1-(1-hydroxy-5-isoquinolinesulfonyl)-4-amidinohomopiperazine]",44,6,–
"CN1CCN(S(=O)(=O)c2cccc3c(O)nccc23)CC1 [Compound (65), 1-(1-hydroxy-5-isoquinolinesulfonyl)-4-methylpiperazine]",53,25,–
"CCC1CN(S(=O)(=O)c2cccc3c(Cl)nccc23)CCN1 (centres unmarked) [Compound (39), 1-(1-chloro-5-isoquinolinesulfonyl)-3-ethylpiperazine]",48,18,–

# From patent US4678783A, “Substituted isoquinolinesulfonyl compounds” (Asahi Kasei Kogyo Kabushiki Kaisha, priority 1984, dated 1987)
